Tested on: trypsin
Type: in vitro ADME

In the case of bovine serum albumin [BSA], the “% Relative Protection (compared with BSA + Trypsin)” value is reported as 0%.

— patent US20210121542A1, “COMPOSITION FOR […] OF PROTEIN TH[…] ORAL, SUBLINGUAL AND BUCCAL ROUTE” (Prime Bio, Inc., priority 2019, published 2021)
